In patent US8637516B2 (IRM LLC, priority 2010, dated 2014) one finds IC50 data, which are given here for 49 molecules.

The target of assay [1] is T1, Ba/F3 cells transformed with human Tel-TrkA (Homo sapiens, UniProt P04629).
T1 construct: expressed in transfected cells; host or cells: Ba/F3 murine hematopoietic progenitor cells (luciferase expressing); the other entry of the earlier key: ETV6 (P41212, Transcription factor ETV6)
The assay is described as follows: Proliferation of Ba/F3 cells transformed with human Tel-TrkA (Ba/F3 Tel-TrkA). The format is cell-based. To be noted: Table 1; 48 hours, Bright Glo luminescence; read-out: Ba/F3 Tel-TrkA. The source says: (§1) Compound dilutions were made in 384 well plates.
(§2) The emited luminiscence is quantified using ViewLux (PerkinElmer).

For a further assay, the system named is parental Ba/F3 cells. Kind of assay: Proliferation of parental (untransformed, wt) Ba/F3 cells (BAF3/WT). The format is cell-based, murine. Conditions: Mus musculus, Table 1, parental cells with IL3, 48 hours. The protocol: as §1
Compounds were tested for their ability to inhibit the proliferation of wt Ba/F3 cells and Ba/F3 cells transformed with constitutively expressed luciferase reporter and BCR-ABL or Tel-FMS or other Tel fusion kinases (EGFR, JAK2, ALK, BMX, FGFR3, FGFR4, FGR2, FLT1, FLT3, IGF1R, INSR, KDR, KIT, LCK, LYN, MEK, MET, PDGFRα, PDGFRβ, RET, RON, ROS, SRC, SYK, TIE and TYRO) or BRafV600E. Parental Ba/F3 cells were maintained in media containing recombinant mouse IL3 and the kinase transformed Ba/F3 cells were maintained in media without IL-3. 7.5 nl of compounds were spotted to each well of 1536-well assay plates by Liquid handling System Echo 555 (Labcyte). 700 cells were then plated into each well of the assay plates in 7 uL culture media per well and compounds were tested at 0.17 nM to 10 uM in 3-fold serial dilutions. The cells were then incubated for 48 hours at 37° C. 3 uL of Bright-Glo® (Promega) was added to each well and the plates were read using ViewLux (PerkinElmer).
as §2

T1 sequence (P04629 510-796 limits assumed): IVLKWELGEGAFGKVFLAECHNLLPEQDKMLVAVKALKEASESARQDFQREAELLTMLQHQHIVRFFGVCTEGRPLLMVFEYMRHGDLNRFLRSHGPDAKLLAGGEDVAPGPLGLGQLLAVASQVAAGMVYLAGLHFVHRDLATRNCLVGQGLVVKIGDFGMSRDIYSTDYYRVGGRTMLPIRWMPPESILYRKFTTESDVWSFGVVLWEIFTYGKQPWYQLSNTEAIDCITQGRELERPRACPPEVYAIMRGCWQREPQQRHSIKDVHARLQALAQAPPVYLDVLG

On to `O=C(NC1CCC1)c1cnc2ccc(N3CCC[C@@H]3c3cccc(F)c3)nn12` [X-46], for which the IC50 is 20 nM in assay [1] and over 10000 nM with parental Ba/F3 cells.
With `O=C(NCc1ccc(F)cc1)c1cnc2ccc(N3CCC[C@@H]3c3cccc(F)c3)nn12` [X-47], the results for the IC50 (in assay [1]; with parental Ba/F3 cells) were 70 nM and over 10000 nM, respectively.
For `O=C(NC1CCCC1)c1cnc2ccc(N3CCC[C@@H]3c3cccc(F)c3)nn12` [X-48], in that order: 37 nM and over 10000 nM.
The like results for `O=C(NC1CCCCC1)c1cnc2ccc(N3CCC[C@@H]3c3cccc(F)c3)nn12` [X-49] were, in that order, 22 nM and over 9340 nM.
Turning to `CCOC(=O)N1CCC(NC(=O)c2cnc3ccc(N4CCC[C@@H]4c4cccc(F)c4)nn23)CC1` [X-50], the results for the IC50 (in assay [1]; in the assay with parental Ba/F3 cells) were 40 nM and over 10000 nM, respectively.
As to `COCCNC(=O)c1cnc2ccc(N3CCC[C@@H]3c3cccc(F)c3)nn12` [X-51], the values for the IC50 (in assay [1]; in the assay with parental Ba/F3 cells) were 67 nM and over 10000 nM, respectively.
In the case of `O=C(NCCN1CCOCC1)c1cnc2ccc(N3CCC[C@@H]3c3cccc(F)c3)nn12` [X-52], the IC50 in assay [1] is 58 nM; in the assay with parental Ba/F3 cells, over 10000 nM.
Take `O=C(NCC(F)(F)F)c1cnc2ccc(N3CCC[C@@H]3c3cccc(F)c3)nn12` [X-53]: the IC50 is 3 nM in assay [1] and over 10000 nM in the assay with parental Ba/F3 cells.
For the molecule `COC[C@H](C)NC(=O)c1cnc2ccc(N3CCC[C@@H]3c3cccc(F)c3)nn12` [X-54], the values for the IC50 (in assay [1]; in the assay on parental Ba/F3 cells) were 53 nM and over 10000 nM, respectively.
The like results for `CCNC(=O)c1cnc2ccc(N3CCC[C@@H]3c3cccc(F)c3)nn12` [X-55] were, in that order, 7 nM and over 9620 nM.
As for `CN(C)CCNC(=O)c1cnc2ccc(N3CCC[C@@H]3c3cccc(F)c3)nn12` [X-56], the IC50 in assay [1] is 676 nM; with parental Ba/F3 cells, over 10000 nM.
For the molecule `O=C(NCc1ccc(Cl)nc1)c1cnc2ccc(N3CCC[C@@H]3c3cccc(F)c3)nn12` [X-57], the IC50 in assay [1] is 190 nM; in the assay with parental Ba/F3 cells, over 10000 nM.
For `O=C(NCCCN1CCOCC1)c1cnc2ccc(N3CCC[C@@H]3c3cccc(F)c3)nn12` [X-58], in that order: 390 nM and over 10000 nM.
For `O=C(NC1CCSCC1)c1cnc2ccc(N3CCC[C@@H]3c3cccc(F)c3)nn12` [X-59], in that order: 36 nM and over 10000 nM.
As for `O=C(NCC(F)(F)C(F)(F)F)c1cnc2ccc(N3CCC[C@H]3c3cccc(F)c3)nn12` [X-60], the IC50 in assay [1] was 35 nM; with parental Ba/F3 cells, over 10000 nM.
Turning to `CC(C)(C)OC(=O)N1CC(NC(=O)c2cnc3ccc(N4CCC[C@@H]4c4cccc(F)c4)nn23)C1` [X-61], the results for the IC50 (in assay [1]; in the assay on parental Ba/F3 cells) were 144 nM and over 10000 nM, respectively.
For `CC(C)(C)OC(=O)N1CC[C@@H](NC(=O)c2cnc3ccc(N4CCC[C@@H]4c4cccc(F)c4)nn23)C1` [X-62], in that order: 910 nM and over 10000 nM.
For `CC(C)(C)OC(=O)N1CCC(NC(=O)c2cnc3ccc(N4CCC[C@@H]4c4cccc(F)c4)nn23)CC1` [X-63], the IC50 in assay [1] was 60 nM; in the assay with parental Ba/F3 cells, over 10000 nM.
The like results for `CC(=O)N1CC(NC(=O)c2cnc3ccc(N4CCC[C@@H]4c4cccc(F)c4)nn23)C1` [X-64] were, in that order, 832 nM and over 10000 nM.
`N#Cc1cccc(NC(=O)c2cnc3ccc(N4CCC[C@@H]4c4cccc(F)c4)nn23)c1` [X-65, (R)-N-(3-cyanophenyl)-6-(2-(3-fluorophenyl)pyrrolidin-1-yl)imidazo[1,2-b]pyridazine-3-carboxamide]: the IC50 in assay [1] was 92 nM; in the assay on parental Ba/F3 cells, over 9510 nM.
`CC(=O)N1CC[C@@H](NC(=O)c2cnc3ccc(N4CCC[C@@H]4c4cccc(F)c4)nn23)C1` [X-66]: the IC50 is 737 nM in assay [1] and over 10000 nM in the assay with parental Ba/F3 cells.
Turning to `CC(=O)N1CCC(NC(=O)c2cnc3ccc(N4CCC[C@@H]4c4cccc(F)c4)nn23)CC1` [X-67], the IC50 in assay [1] was 81 nM; in the assay with parental Ba/F3 cells, over 10000 nM.
Regarding `CS(=O)(=O)N1CC(NC(=O)c2cnc3ccc(N4CCC[C@@H]4c4cccc(F)c4)nn23)C1` [X-68], the IC50 is 38 nM in assay [1] and over 10000 nM in the assay with parental Ba/F3 cells.
On to `O=C(NCc1ccccc1F)c1cnc2ccc(N3CCC[C@@H]3c3cccc(F)c3)nn12` [X-69], for which the IC50 in assay [1] was 104 nM; in the assay with parental Ba/F3 cells, over 10000 nM.
For the molecule `CS(=O)(=O)N1CC[C@@H](NC(=O)c2cnc3ccc(N4CCC[C@@H]4c4cccc(F)c4)nn23)C1` [X-70], the IC50 in assay [1] is 293 nM; in the assay with parental Ba/F3 cells, over 10000 nM.
`CS(=O)(=O)N1CCC(NC(=O)c2cnc3ccc(N4CCC[C@@H]4c4cccc(F)c4)nn23)CC1` [X-71, (R)-6-(2-(3-fluorophenyl)pyrrolidin-1-yl)-N-(1-(methylsulfonyl)piperidin-4-yl)imidazo[1,2-b]pyridazine-3-carboxamide]: the IC50 in assay [1] was 22 nM; in the assay with parental Ba/F3 cells it was over 10000 nM.
Consider `CC(=O)OCC(=O)N1CCC(NC(=O)c2cnc3ccc(N4CCC[C@@H]4c4cccc(F)c4)nn23)CC1` [X-73, (R)-2-(4-(6-(2-(3-fluorophenyl)pyrrolidin-1-yl)imidazo[1,2-b]pyridazine-3-carboxamido)piperidin-1-yl)-2-oxoethyl acetate], for which the figures for the IC50 (in assay [1]; in the assay with parental Ba/F3 cells) were 109 nM and over 10000 nM, respectively.
For `O=C(NCc1cccc(F)c1)c1cnc2ccc(N3CCC[C@@H]3c3cccc(F)c3)nn12` [X-74], the figures for the IC50 (in assay [1]; with parental Ba/F3 cells) were 70 nM and over 10000 nM, respectively.
With `O=C(NC1CCN(C(=O)CO)CC1)c1cnc2ccc(N3CCC[C@@H]3c3cccc(F)c3)nn12` [X-75, (R)-6-(2-(3-fluorophenyl)pyrrolidin-1-yl)-N-(1-(2-hydroxyacetyl)piperidin-4-yl)imidazo[1,2-b]pyridazine-3-carboxamide], the values for the IC50 (in assay [1]; in the assay on parental Ba/F3 cells) were 98 nM and over 10000 nM, respectively.
For `O=C(NCCC(F)(F)F)c1cnc2ccc(N3CCC[C@@H]3c3cccc(F)c3)nn12` [X-76], the values for the IC50 (in assay [1]; with parental Ba/F3 cells) were 34 nM and over 10000 nM, respectively.
For the molecule `CCn1nccc1NC(=O)c1cnc2ccc(N3CCC[C@@H]3c3cccc(F)c3)nn12` [X-77], the IC50 is 548 nM in assay [1] and over 10000 nM with parental Ba/F3 cells.
`O=C(NCCO)c1cnc2ccc(N3CCC[C@@H]3c3cccc(F)c3)nn12` [X-79]: the IC50 is 61 nM in assay [1] and over 10000 nM in the assay with parental Ba/F3 cells.
Turning to `O=C(N[C@H]1CC[C@@H](O)CC1)c1cnc2ccc(N3CCC[C@@H]3c3cccc(F)c3)nn12` [X-80], the IC50 in assay [1] was 6 nM; in the assay with parental Ba/F3 cells, over 10000 nM.
For `O=C(N[C@@H]1CCC[C@H]1O)c1cnc2ccc(N3CCC[C@@H]3c3cccc(F)c3)nn12` [X-81], the IC50 in assay [1] is 12 nM; with parental Ba/F3 cells, over 10000 nM.
For the molecule `O=C(N[C@H]1CCCC[C@@H]1O)c1cnc2ccc(N3CCC[C@@H]3c3cccc(F)c3)nn12` [X-82], the IC50 in assay [1] was 89 nM; in the assay with parental Ba/F3 cells, over 10000 nM.
The like results for `CC(C)(CO)NC(=O)c1cnc2ccc(N3CCC[C@@H]3c3cccc(F)c3)nn12` [X-83] were, in that order, 20 nM and over 10000 nM.
On to `O=C(NC[C@H]1CCCO1)c1cnc2ccc(N3CCC[C@@H]3c3cccc(F)c3)nn12` [X-84], for which the IC50 in assay [1] was 30 nM; with parental Ba/F3 cells, over 10000 nM.
The like results for `O=C(NC[C@@H]1CCCO1)c1cnc2ccc(N3CCC[C@@H]3c3cccc(F)c3)nn12` [X-85] were, in that order, 54 nM and over 10000 nM.
For `O=C(NCCN1CCCC1=O)c1cnc2ccc(N3CCC[C@@H]3c3cccc(F)c3)nn12` [X-86], the IC50 in assay [1] is 191 nM; in the assay with parental Ba/F3 cells, over 10000 nM.
As for `COC(=O)N[C@@H](C)CNC(=O)c1cnc2ccc(N3CCC[C@@H]3c3cccc(F)c3)nn12` [X-87], the values for the IC50 (in assay [1]; in the assay with parental Ba/F3 cells) were 76 nM and over 10000 nM, respectively.
`O=C(NC1CCS(=O)(=O)C1)c1cnc2ccc(N3CCC[C@@H]3c3cccc(F)c3)nn12` (some centres unmarked) [X-88]: the IC50 was 53 nM in assay [1] and over 10000 nM in the assay with parental Ba/F3 cells.
Take `N#Cc1ccc(CNC(=O)c2cnc3ccc(N4CCC[C@@H]4c4cccc(F)c4)nn23)cc1` [X-89]: the IC50 is 164 nM in assay [1] and over 10000 nM with parental Ba/F3 cells.
For the molecule `O=C(NCC1CC1)c1cnc2ccc(N3CCC[C@@H]3c3cccc(F)c3)nn12` [X-90], the results for the IC50 (in assay [1]; with parental Ba/F3 cells) were 14 nM and over 10000 nM, respectively.
For `O=C(NCCC1CCCCC1)c1cnc2ccc(N3CCC[C@@H]3c3cccc(F)c3)nn12` [X-91], in that order: 289 nM and 6160 nM.
With `O=C(NC1CCOCC1)c1cnc2ccc(N3CCC[C@@H]3c3cccc(F)c3)nn12` [X-93], the results for the IC50 (in assay [1]; with parental Ba/F3 cells) were 10 nM and over 10000 nM, respectively.
The like results for `CC(C)CNC(=O)c1cnc2ccc(N3CCC[C@@H]3c3cccc(F)c3)nn12` [X-94] were, in that order, 16 nM and over 10000 nM.
The like results for `O=C(NCC1CCCCC1)c1cnc2ccc(N3CCC[C@@H]3c3cccc(F)c3)nn12` [X-95] were, in that order, 118 nM and over 10000 nM.
Consider `O=C(NCCF)c1cnc2ccc(N3CCC[C@@H]3c3cccc(F)c3)nn12` [X-96], for which the IC50 in assay [1] was 7 nM; in the assay with parental Ba/F3 cells, over 10000 nM.
The like results for `O=C(NC1CCCOC1)c1cnc2ccc(N3CCC[C@@H]3c3cccc(F)c3)nn12` (some centres unmarked) [X-97] were, in that order, 8 nM and over 10000 nM.
